Source: paper PMC5457628, “Inhibitors of ubiquitin E3 ligase as potential new antimalarial drug leads” (BMC Pharmacology & Toxicology, 2017)
Where two headings read alike, the source gives them in different places.

Assays:
[1] = test system: P. falciparum D6 strain (PfD6); assay: Stage specific imaging analysis: parasitemia and differential stage counts in synchronized PfD6 culture (Giemsa smears); format: cell-based, Plasmodium falciparum; conditions: CQ 50 nM; for effect on parasitemia as compared to vehicle control: HLI 373 5 μM, Nutlin 3 35 μM; for overall parasitemia: synchronized PfD6, ~6% parasitemia at 0 h, JNJ 26854165 5 μM
Description: The stage-specific activity of the lead compounds was tested against Pf D6. […] The culture was synchronized by 5% sorbitol treatment as previously described. The synchronized culture of PfD6, with ~6% parasitemia and >90% of the parasite in ring stage, was used for these assays. Stock solutions (10 mM) of the test inhibitors were prepared in DMSO. […] The effect of the compounds was monitored after every 8 h (0, 8, 16, 24, 32, 40 and 48 h) by preparing thin smears of the infected erythrocytes. The slides were stained with Giemsa, and digital images of the parasite were captured with Nikon Eclipse microscope under bright field using NIS-element imaging software. The images were analyzed for the parasite stages and morphological changes (if any) in the parasite. The levels of parasitemia and differential parasitemia (relative percentage of different parasite stages) counts were also measured. At least one thousand erythrocytes (total- infected & uninfected) were counted from each slide for determination of the level of parasitemia and differential parasite stage counts.

[2] = test system: P. falciparum W2 (CQ-resistant strain); assay: Antimalarial SYBR Green I-based fluorescence assay, PfW2; format: cell-based; conditions: Plasmodium falciparum
Description: CQ-sensitive (D6, Sierra Leone) and -resistant (W2, Indochina) strains of P. falciparum cultures were obtained from Malaria Research and Reference Reagent Resource Center (MR4), USA and maintained at 5% hematocrit in complete culture medium (RPMI 1640 supplemented with 60 μg/mL amikacin, 27 mM NaHCO3 and 10% heat-inactivated normal human type A+ serum). The medium of the culture was replaced every 48 h, flushed with a gas mixture of 90% N2, 5% CO2 and 5% O2 and incubated at 37 °C.
CQ-sensitive P. falciparum D6 strain (Pf D6) and CQ-resistant P. falciparum W2 strain (Pf W2) were grown in RPMI 1640 medium supplemented with amikacin (60 μg/mL), NaHCO3 (27 mM) and 10% heat-inactivated normal human type A+ serum. Only ring stages of the parasite were counted and adjusted to 2% parasitemia with 2% hematocrit. Stock solutions (10 mM) of the test inhibitors were prepared in DMSO. The compounds were serially diluted in serum-free RPMI-1640 medium for testing at eight concentrations. The maximum concentrations of E3 ligase inhibitors and CQ used in the assay were 50 μM and 500 nM respectively. The plates were incubated at 37 °C in 5% CO2, 5% O2, and 90% N2 environment for 48, 72, 96 and 120 h. After incubation, SYBR green with RBC lysis buffer was added to each well, and the plates were incubated for 1 h in the dark at room temperature. The standard antimalarial agent, CQ was tested as the positive control, and DMSO was tested as vehicle control. Standard fluorescence was measured Fluostar Galaxy microplate reader (BMG Lab Technologies) at excitation wavelength of 485 nm and emission wavelength of 535 nm. The anti-malarial activity (expressed as IC50 values) was determined by the dose-response analysis with XLfit©.

[3] = In vitro cytotoxicity assay (AlamarBlue) against PMA-transformed THP1 cells; format: cell-based; conditions: human, PMA-transformed non-dividing THP1, mean ± SEM of duplicates, NC = not cytotoxic at highest concentration tested (50 μM inhibitors, 500 nM CQ), read-out: THP1 Cell Cytotoxicity (IC50)
Description: The E3 ligase inhibitors were also tested against Vero cells (African green monkey kidney epithelial cells) and transformed non-dividing human monocytic (THP1) cells. The methods described earlier were used to measure cytotoxicity for Vero and THP1 cells. In brief, four days’ old Vero and THP1 cell cultures were diluted with RPMI medium to 25,000 cells/mL. Vero cells (100 μL per well) were seeded in a clear 96 well culture plate and incubated for 24 h at 37 °C in a 5% CO2 incubator to obtain confluent cells. Phorbol 12-myristate 13-acetate (PMA) (25 ng/mL) was added to THP1 cell culture to transform the cells to adherent macrophages. PMA treated THP1cells were dispensed into clear 96 well culture plates (200 μL/well; 25,000 cells/mL) and incubated at 37 °C in a 5% CO2 incubator for overnight. The test compounds were prepared in DMSO at 10 mM concentration. The compounds were serially diluted in RPMI medium with 2% FBS in the separate daughter plates, for testing at eight concentrations. The cells were washed with culture medium, replaced with the fresh medium and test compounds were added. The maximum concentration of E3 ligase inhibitors and CQ used in these assays were 50 μM and 500 nM respectively. DMSO was tested as vehicle control in these assays. The plates were incubated further in a CO2 incubator at 37 °C for 48 h. After 48 h, 10 μL of AlamarBlue® was added to each well, and the plates were incubated in a CO2 incubator at 37 °C for overnight. […] IC50 values were computed by analyzing dose-response curves with XLfit©.

[4] = test system: P. falciparum D6 (CQ-sensitive strain); assay: Antimalarial SYBR Green I-based fluorescence assay, PfD6; format: cell-based
Description: The medium of the culture was replaced every 48 h, flushed with a gas mixture of 90% N2, 5% CO2 and 5% O2 and incubated at 37 °C.
Only ring stages of the parasite were counted and adjusted to 2% parasitemia with 2% hematocrit. Stock solutions (10 mM) of the test inhibitors were prepared in DMSO. […] The maximum concentrations of E3 ligase inhibitors and CQ used in the assay were 50 μM and 500 nM respectively. The plates were incubated at 37 °C in 5% CO2, 5% O2, and 90% N2 environment for 48, 72, 96 and 120 h. After incubation, SYBR green with RBC lysis buffer was added to each well, and the plates were incubated for 1 h in the dark at room temperature. The standard antimalarial agent, CQ was tested as the positive control, and DMSO was tested as vehicle control. […] The anti-malarial activity (expressed as IC50 values) was determined by the dose-response analysis with XLfit©.

[5] = biological target: MDM2; conditions: read-out: Ki, MDM 2 inhibitor; cited from earlier work
[6] = In vitro cytotoxicity assay (AlamarBlue) against Vero cells; format: cell-based; conditions: African green monkey, Vero cells (kidney epithelial cells), mean ± SEM of duplicates, NC = not cytotoxic at highest concentration tested (50 μM inhibitors, 500 nM CQ), read-out: Vero Cell Cytotoxicity (IC50)
Description: The E3 ligase inhibitors were also tested against Vero cells (African green monkey kidney epithelial cells) and transformed non-dividing human monocytic (THP1) cells. The methods described earlier were used to measure cytotoxicity for Vero and THP1 cells. In brief, four days’ old Vero and THP1 cell cultures were diluted with RPMI medium to 25,000 cells/mL. Vero cells (100 μL per well) were seeded in a clear 96 well culture plate and incubated for 24 h at 37 °C in a 5% CO2 incubator to obtain confluent cells. Phorbol 12-myristate 13-acetate (PMA) (25 ng/mL) was added to THP1 cell culture to transform the cells to adherent macrophages. PMA treated THP1cells were dispensed into clear 96 well culture plates (200 μL/well; 25,000 cells/mL) and incubated at 37 °C in a 5% CO2 incubator for overnight. The test compounds were prepared in DMSO at 10 mM concentration. The compounds were serially diluted in RPMI medium with 2% FBS in the separate daughter plates, for testing at eight concentrations. The cells were washed with culture medium, replaced with the fresh medium and test compounds were added. The maximum concentration of E3 ligase inhibitors and CQ used in these assays were 50 μM and 500 nM respectively. DMSO was tested as vehicle control in these assays. The plates were incubated further in a CO2 incubator at 37 °C for 48 h. […]

[7] = W2, 48 h incubation, mean ± SEM of duplicates, NA = not active at highest concentration tested (50 μM inhibitors, 500 nM CQ), read-out: P. falciparum W2 (CQ-resistant strain) IC50
[8] = W2, 72 h incubation, mean ± SEM of duplicates, NA = not active at highest concentration tested (50 μM inhibitors, 500 nM CQ), read-out: P. falciparum W2 (CQ-resistant strain) IC50
[9] = W2, 96 h incubation, mean ± SEM of duplicates, NA = not active at highest concentration tested (50 μM inhibitors, 500 nM CQ), read-out: P. falciparum W2 (CQ-resistant strain) IC50
[10] = W2, 120 h incubation, mean ± SEM of duplicates, NA = not active at highest concentration tested (50 μM inhibitors, 500 nM CQ), read-out: P. falciparum W2 (CQ-resistant strain) IC50
[11] = Plasmodium falciparum, D6, 48 h; read-out: IC90 against PfD6 (concentration almost equivalent to IC90)
[12] = Plasmodium falciparum, D6; 48 h incubation; mean ± SEM of duplicates; NA = not active at highest concentration tested (50 μM inhibitors, 500 nM CQ); read-out: P. falciparum D6 (CQ-sensitive strain) IC50
[13] = Plasmodium falciparum, D6; 72 h incubation; mean ± SEM of duplicates; NA = not active at highest concentration tested (50 μM inhibitors, 500 nM CQ); read-out: P. falciparum D6 (CQ-sensitive strain) IC50
[14] = Plasmodium falciparum, D6; 96 h incubation; mean ± SEM of duplicates; NA = not active at highest concentration tested (50 μM inhibitors, 500 nM CQ); read-out: P. falciparum D6 (CQ-sensitive strain) IC50
[15] = Plasmodium falciparum, D6; 120 h incubation; mean ± SEM of duplicates; NA = not active at highest concentration tested (50 μM inhibitors, 500 nM CQ); read-out: P. falciparum D6 (CQ-sensitive strain) IC50
[16] = 40 h post-treatment, vehicle control 6.90
[17] = 48 h post-treatment, vehicle control 5.28%
[18] = W2, 48-120 h, read-out: IC50 against PfW2
[19] = Plasmodium falciparum, D6; 48-120 h; read-out: IC50 against PfD6

Compound | effect on parasitemia as compared to vehicle control ([1]; 40 h post-treatment) | IC50 [2, 7] | IC50 [2, 8] | IC50 [2, 9] | IC50 [2, 10] | IC50 at 48 h [3] | IC90 [4, 11] | IC50 [4, 12] | IC50 [4, 13] | IC50 [4, 14] | IC50 [4, 15] | overall parasitemia [1, 16] | overall parasitemia [1, 17] | IC50 [2, 18] | IC50 [4, 19] | IC50 at 48 h [6] | further results
COc1ccc(C2=N[C@@H](c3ccc(Cl)cc3)[C@@H](c3ccc(Cl)cc3)N2C(=O)N2CCNC(=O)C2)c(OC(C)C)c1 (racemic) [Nutlin 3] | significantly reduced | 18.6 ± 1.6 µM | 15.72 ± 0.04 µM | 15.4 ± 0.54 µM | 15.6 ± 2.17 µM | 35.2 ± 2.76 µM | ~35 µM | 12.8 ± 1.34 µM | 19.4 ± 0.34 µM | 15.9 ± 1.24 µM | 20 ± 4.52 µM |  |  |  |  |  | 
CCN(CC)CCCC(C)Nc1ccnc2cc(Cl)ccc12 (centres unmarked) [Chloroquine] | significantly decreased the overall parasitemia |  |  |  |  |  |  |  |  |  |  | 2.40% | 1.92% |  |  |  | parasites arrested at ring stage ([1]; 40 and 48 h post-treatment): more than 50%; parasites arrested at ring stage ([1]; 16 h post-treatment): around 50%; IC50 ([2]; W2, 48 h, read-out: P. falciparum W2 (CQ-resistant strain) IC50): 0.19 ± 0.004 µM; IC50 ([2]; W2, 72 h, read-out: P. falciparum W2 (CQ-resistant strain) IC50): 0.19 ± 0.007 µM; IC50 ([2]; W2, 96 h, read-out: P. falciparum W2 (CQ-resistant strain) IC50): 0.2 ± 0.001 µM; IC50 ([2]; W2, 120 h, read-out: P. falciparum W2 (CQ-resistant strain) IC50): 0.19 ± 0.002 µM; IC90 ([4]; Plasmodium falciparum, D6, 48 h, read-out: IC90 against PfD6 (concentration almost equivalent to IC90)): ~0.05 µM; IC50 ([4]; Plasmodium falciparum, D6, 48 h, read-out: P. falciparum D6 (CQ-sensitive strain) IC50): 0.03 ± 0.001 µM; IC50 ([4]; Plasmodium falciparum, D6, 72 h, read-out: P. falciparum D6 (CQ-sensitive strain) IC50): 0.02 ± 0.004 µM; IC50 ([4]; Plasmodium falciparum, D6, 96 h, read-out: P. falciparum D6 (CQ-sensitive strain) IC50): 0.02 ± 0.001 µM; IC50 ([4]; Plasmodium falciparum, D6, 120 h, read-out: P. falciparum D6 (CQ-sensitive strain) IC50): 0.02 ± 0.001 µM
c1ccc2c(CCNc3ccc(Nc4ccncc4)cc3)c[nH]c2c1 [JNJ 26854165, Serdemetan] |  | 1.86 ± 0.03 µM | 1.74 ± 0.27 µM | 2.28 ± 0.03 µM | 2.02 ± 0.36 µM | 22.4 ± 0.56 µM | ~5 µM | 2.17 ± 0.004 µM | 2.93 ± 0.03 µM | 1.41 ± 0.03 µM | 1.46 ± 0.12 µM | 1.90% | 1.76% | < 6 µM | < 6 µM |  | 
Cc1ccc2ccc(C(Nc3ccccc3)c3ccccc3)c(O)c2n1 (centres unmarked) [NSC 66811] |  | 28.7 ± 4.01 µM | 39 ± 2.71 µM |  |  | 37.8 ± 4.1 µM |  | 32.2 ± 4.57 µM | 37 ± 1.8 µM |  |  |  |  |  |  |  | Ki [5]: 0.12 µM
CCc1c2ccccc2c(CSC(=N)N)c2ccccc12 [NSC 146109] |  | 2.07 ± 0.22 µM | 2.63 ± 0.05 µM | 2.91 ± 0.03 µM | 3.23 ± 0.03 µM | 1.2 ± 0.28 µM |  | 5.24 ± 0.2 µM | 4.8 ± 0.05 µM | 3.09 ± 0.08 µM | 2.52 ± 0.39 µM |  |  | < 6 µM | < 6 µM | 5.27 ± 0.05 µM | 
O=C1c2ccccc2-c2nc3nonc3nc21 [SMER 3] |  | 20.6 ± 5.19 µM | 23.7 ± 3.53 µM | 45.8 ± 0.09 µM | 48.6 ± 0.49 µM | 5.8 ± 0.28 µM |  | 12.1 ± 0.68 µM | 49 ± 0.94 µM |  |  |  |  |  |  | 16 ± 0.55 µM | 
